Experimental data from patent US10683310B2, “Compound for specifically binding to amyloid β-protein” (NEUBORON MEDTECH LTD., priority 2015, dated 2020).

Assays:
[1] = stability in vitro of 11C-labeled compound determined by HPLC; type: physicochemical
Procedure: The stability of IIC-labeled 6-borono-2-(4-methylaminophenyl)benzothiazole in vitro was determined by HPLC, at selected time of 30 min and 60 min. […] Therefore, the radioactive chemical purity of the IIC-labeled radioactive compound met the experimental requirements.

[2] = system: amyloid β-protein deposition plaques; experiment: Micro-PET scan of brain uptake in SAMP8 model mice and control mice; type: in vivo; conditions: for Cerebral cortex uptake of radiopharmaceuticals, Model mice / hippocampus uptake of radiopharmaceuticals, Model mice: SAMP8 model mice; for Cerebral cortex uptake of radiopharmaceuticals, Control mice / hippocampus uptake of radiopharmaceuticals, Control mice: normal control mice
Procedure: SAMP8 (senescence accelerated mouse prone 8) mice are the most common animal model of AD (Alzheimer's disease), in its brain there are a large number of amyloid deposition plaque. In this example, SAMP8 mice were used as model mice, and the normal mice were used as the control mice. Both the model mice and the control mice were 10 months old. The two mice were injected with 6-borono-2-(4-methylaminophenyl)benzothiazole containing labeling, and the Micro-PET scan is used to study whether 6-borono-2-(4-methylaminophenyl)benzothiazole and amyloid β-protein have specific binding properties. Model mice and control mice weighing 31.5±0.3 g were selected, 31.0±0.6 μCi of ^11C labelled 6-borono-2-(4-methylaminophenyl)benzothiazole were injected thereto, and Micro-PET of Model INVEON from Siemens were used for scan, where the scanning window was 350-650 KeV.
It is well known to those skilled in the art that the major cause of Alzheimer's disease is that the amyloid β-protein deposition plaques accumulate in the cerebral cortex and hippocampus of the brain. In this example, Micro-PET scanned and compared the brains of the model and control mice using PMOD software. And the absorption of radioactive 6-borono-2-(4-methylaminophenyl)benzothiazole in the cerebral cortex and hippocampus of SAMP8 model mice and control mice was determined, to further illustrate that the compound is capable of specifically binding to amyloid β-protein deposition plaques.

Question: Which “radioactive chemical purity (stability in vitro)” value ([1]; 30 min) does the source give for `CNc1ccc(-c2nc3ccc(B(O)O)cc3s2)cc1` [6-borono-2-(4-methylaminophenyl)benzothiazole] here?
Answer: The value was 100%.

Question: And the “radioactive chemical purity (stability in vitro)” value ([1]; 60 min)?
Answer: Its value is 100%.

Question: What about the “Cerebral cortex uptake Ratio (model mice/control mice)” value ([2]; 5 min after injection) of the same compound?
Answer: The value was 1.9.

Question: And the “hippocampus uptake Ratio (model mice/control mice)” value ([2]; 5 min after injection)?
Answer: Its value is 1.9.

Question: What about the “Cerebral cortex uptake Ratio (model mice/control mice)” value ([2]; 15 min after injection) of the same compound?
Answer: The value was 1.9.

Question: And the “hippocampus uptake Ratio (model mice/control mice)” value ([2]; 15 min after injection)?
Answer: The value was 2.3.

Question: What about the “Cerebral cortex uptake Ratio (model mice/control mice)” value ([2]; 25 min after injection) of the same compound?
Answer: The value was 2.4.

Question: What about the “hippocampus uptake Ratio (model mice/control mice)” value ([2]; 25 min after injection) of the same compound?
Answer: The value was 3.2.

Question: What about the “Cerebral cortex uptake Ratio (model mice/control mice)” value ([2]; 35 min after injection) of the same compound?
Answer: The value was 2.7.

Question: And the “hippocampus uptake Ratio (model mice/control mice)” value ([2]; 35 min after injection)?
Answer: The value was 3.2.

Question: What about the “Cerebral cortex uptake of radiopharmaceuticals, Model mice” value ([2]; 5 min after injection) of the same compound?
Answer: The value was 3.03 % ID/g.

Question: And the “hippocampus uptake of radiopharmaceuticals, Model mice” value ([2]; 5 min after injection)?
Answer: Its value is 3.44 % ID/g.

Question: And the “Cerebral cortex uptake of radiopharmaceuticals, Model mice” value ([2]; 15 min after injection)?
Answer: The value was 2.88 % ID/g.

Question: What about the “hippocampus uptake of radiopharmaceuticals, Model mice” value ([2]; 15 min after injection) of the same compound?
Answer: Its value is 3.50 % ID/g.

Question: And the “Cerebral cortex uptake of radiopharmaceuticals, Model mice” value ([2]; 25 min after injection)?
Answer: The value was 2.79 % ID/g.

Question: What about the “hippocampus uptake of radiopharmaceuticals, Model mice” value ([2]; 25 min after injection) of the same compound?
Answer: The value was 3.45 % ID/g.

Question: And the “Cerebral cortex uptake of radiopharmaceuticals, Model mice” value ([2]; 35 min after injection)?
Answer: Its value is 2.68 % ID/g.

Question: What about the “hippocampus uptake of radiopharmaceuticals, Model mice” value ([2]; 35 min after injection) of the same compound?
Answer: The value was 3.27 % ID/g.

Question: What about the “brain radiopharmaceutical absorption (PET image)” value ([2]; SAMP8 model mouse versus control mice, 30 min after injection, FIGS. 5A and 5B) of the same compound?
Answer: The value was “accumulated a large amount of radiopharmaceuticals relative to the brain of the control mice”.

Question: What about the “Cerebral cortex uptake of radiopharmaceuticals, Control mice” value ([2]; 5 min after injection) of the same compound?
Answer: The value was 1.61 % ID/g.

Question: What about the “hippocampus uptake of radiopharmaceuticals, Control mice” value ([2]; 5 min after injection) of the same compound?
Answer: Its value is 1.80 % ID/g.

Question: What about the “Cerebral cortex uptake of radiopharmaceuticals, Control mice” value ([2]; 15 min after injection) of the same compound?
Answer: The value was 1.48 % ID/g.

Question: What about the “hippocampus uptake of radiopharmaceuticals, Control mice” value ([2]; 15 min after injection) of the same compound?
Answer: Its value is 1.49 % ID/g.

Question: And the “Cerebral cortex uptake of radiopharmaceuticals, Control mice” value ([2]; 25 min after injection)?
Answer: The value was 1.17 % ID/g.

Question: What about the “hippocampus uptake of radiopharmaceuticals, Control mice” value ([2]; 25 min after injection) of the same compound?
Answer: The value was 1.09 % ID/g.

Question: And the “Cerebral cortex uptake of radiopharmaceuticals, Control mice” value ([2]; 35 min after injection)?
Answer: The value was 0.99 % ID/g.

Question: What about the “hippocampus uptake of radiopharmaceuticals, Control mice” value ([2]; 35 min after injection) of the same compound?
Answer: The value was 1.01 % ID/g.
